Measured values reported in publication PMC8440459 (Neurotoxicology, 2021).
“Also recorded” adds a separate entry of the source. One block for each molecule: values may come before it.

How the values were obtained:
equine liver GST [1] = biological target: T1, equine liver GST (Equus caballus, UniProt A0A9L0RPC4); assay: Protection of GST activity from DOPAL, DA or DOPAC; assay type: biochemical; conditions: 1mM protectant, 100μM DA
equine liver GST [2] = biological target: T1, equine liver GST; assay: Nitro blue tetrazolium staining of equine liver GST; conditions: 1mM protectant
[3] = biological target: bovine serum albumin (BSA) (Bos taurus, UniProt P02769); assay: Nitro blue tetrazolium staining of BSA modified by DOPAL; conditions: 0.5mg/mL BSA, 4 hours at 37°C, L-cysteine effect at 1mM
[4] = biological target: GST isolated from N27 dopaminergic cells (Rattus norvegicus, UniProt P04906); assay: CDNB assay of GST isolated from N27 cells; assay type: biochemical
equine liver GST [5] = biological target: T1, equine liver GST; assay: Time dependency of equine liver GST inhibition; assay type: biochemical; conditions: for GST activity after 24-hour incubation: 100μM inhibitor, compared with 4 hours; for Time dependency of inhibition of GST activity: aliquots after 1, 2 and 4 hours of incubation
equine liver GST [6] = biological target: T1, equine liver GST; assay: Reversibility of equine liver GST inhibition; assay type: biochemical; conditions: for Reversibility of inhibition of GST activity: 100μM inhibitor, with or without size exclusion column; for GST activity after application to Bio-Spin 6 Tris Columns / Inhibition of GST after incubation with known reversible inhibitor: 500μM, data not shown; for GST activity after application to Bio-Spin 6 Tris Columns: after column; for Inhibition of GST after incubation with known reversible inhibitor: before column
equine liver GST [7] = biological target: T1, equine liver GST; assay type: biochemical; conditions: 4 hours at 37°C
dopaminergic cells = conditions: ref Schamp and Doorn, 2017; cited from earlier work

Sequence of GST isolated from N27 dopaminergic cells (P04906 whole entry): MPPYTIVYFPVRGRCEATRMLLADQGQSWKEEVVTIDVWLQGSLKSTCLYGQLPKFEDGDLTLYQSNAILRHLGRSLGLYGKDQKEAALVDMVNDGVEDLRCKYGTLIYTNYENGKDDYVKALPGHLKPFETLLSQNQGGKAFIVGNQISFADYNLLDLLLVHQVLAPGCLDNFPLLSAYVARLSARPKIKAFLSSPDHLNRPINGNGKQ
Sequence of bovine serum albumin (BSA) (P02769 25-607): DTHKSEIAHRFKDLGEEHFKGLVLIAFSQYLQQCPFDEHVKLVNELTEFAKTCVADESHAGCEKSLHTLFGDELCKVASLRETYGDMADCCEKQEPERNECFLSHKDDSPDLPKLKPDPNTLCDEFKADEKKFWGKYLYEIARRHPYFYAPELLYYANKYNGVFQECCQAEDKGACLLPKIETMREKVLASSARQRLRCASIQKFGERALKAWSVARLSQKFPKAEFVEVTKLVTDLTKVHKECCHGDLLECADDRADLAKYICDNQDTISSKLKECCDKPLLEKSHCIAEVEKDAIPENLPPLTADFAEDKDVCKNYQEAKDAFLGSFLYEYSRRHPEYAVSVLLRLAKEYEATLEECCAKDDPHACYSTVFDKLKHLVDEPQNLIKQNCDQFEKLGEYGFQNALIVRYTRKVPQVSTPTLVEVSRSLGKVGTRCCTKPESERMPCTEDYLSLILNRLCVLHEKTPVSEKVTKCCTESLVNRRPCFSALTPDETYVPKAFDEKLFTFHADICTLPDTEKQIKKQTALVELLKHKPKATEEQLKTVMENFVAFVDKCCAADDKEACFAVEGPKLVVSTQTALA

Protection against modification of equine liver GST by 100 μM DOPAL (NBT stain) (equine liver GST [2]): moderately protective
SMILES: NCCC(=O)N[C@@H](Cc1cnc[nH]1)C(=O)O [Carnosine, carnosine]
Protection of GST activity against inhibition by DA (equine liver GST [1]): significant protection; also recorded: partial activity retention
Reduction of NBT staining of BSA modified by 200μM DOPAL [3]: did not significantly reduce protein modification

Reduction of NBT staining of BSA modified by 200μM DOPAL [3]: significantly reduced NBT staining
SMILES: N[C@@H](CS)C(=O)O [L-cysteine]

Inhibition of GST after incubation with known reversible inhibitor (equine liver GST [6]): significant inhibition
SMILES: O=C(O)/C=C/c1ccc(O)c(O)c1 [caffeic acid]
GST activity after application to Bio-Spin 6 Tris Columns (equine liver GST [6]): regained the full value of its original activity

Further lines, the molecule ahead of its results:

SMILES: NCCc1ccc(O)c(O)c1 [DA, dopamine]
IC50 [4]: 82.3 µM
GST activity after 24-hour incubation (equine liver GST [5]): almost completely nulls enzyme activity
Time dependency of inhibition of GST activity (equine liver GST [5]): time dependent
Reversibility of inhibition of GST activity (equine liver GST [6]): irreversible

SMILES: O=C(O)Cc1ccc(O)c(O)c1 [DOPAC, 3,4-dihydroxyphenylacetic acid]
IC50 [4]: 260 µM
Time dependency of inhibition of GST activity (equine liver GST [5]): time dependent
Reversibility of inhibition of GST activity (equine liver GST [6]): irreversible

SMILES: O=CCc1ccc(O)c(O)c1 [DOPAL, 3,4-dihydroxyphenylacetaldehyde]
IC50 [4]: 31.5 µM
Concentration giving significant inhibition of commercially available GST (equine liver GST [7]): 5 µM
GST activity after 24-hour incubation (equine liver GST [5]): almost completely nulls enzyme activity
Time dependency of inhibition of GST activity (equine liver GST [5]): time dependent
Reversibility of inhibition of GST activity (equine liver GST [6]): irreversible
Concentration toxic to dopaminergic cells (dopaminergic cells): 7 µM

SMILES: CCCCCCSC[C@H](NC(=O)CC[C@H](N)C(=O)O)C(=O)NCC(=O)O [S-hexylglutathione]
GST activity after application to Bio-Spin 6 Tris Columns (equine liver GST [6]): regained the full value of its original activity
Inhibition of GST after incubation with known reversible inhibitor (equine liver GST [6]): significant inhibition
